We go through nine molecules from paper PMC10818523, “Novel Flurbiprofen Derivatives as Antioxidant and Anti-Inflammatory Agents: Synthesis, In Silico, and In Vitro Biological Evaluation” (Molecules, 2024).

Like-named read-outs stand apart in the source and are kept apart here.

One data set concerns the target human albumin (Homo sapiens, UniProt P02768). In words: Inhibition of albumin denaturation (IAD). The format is biochemical. The following applies: heated at 70 °C for 15 min, mean ± SD of triplicates. On the procedure: In vitro analysis of anti-inflammatory activity was assessed as inhibition of albumin denaturation (IAD). The analysis was performed according Manolov et al. method. The experiment was performed with human albumin. The solution of albumin (1%) was prepared in distilled water (pH 7.4). The tested and the reference compounds were dissolved firstly in PBS resulting in 1000 μg/mL stock solutions. Then a series of working solutions with different concentrations (20–500 μg/mL) in PBS were prepared. The reaction mixture was containing 2 mL test sample/reference of different concentrations and 1 mL albumin (1%). The mixture was incubated at 37 °C for 15 min and then heated at 70 °C for 15 min in water bath. After cooling, the turbidity was measured at 660 nm with a spectrophotometer (Camspec M508, Leeds, UK). Ibuprofen and flurbiprofen were used as reference compounds. The experiment was performed three times. Percentage inhibition of albumin denaturation (IAD) was calculated against the control. The control sample is albumin with the same concentration dissolved in distilled water. %IAD=Ablank−Asample/Ablank×100
(§1) All of the analyses were made in triplicates. Data were expressed as mean ± SD. The level of significance was set at p < 0.05. The mean IC50 value was estimated based on three replicates by interpolating the graphical dependence of activity on concentration. Statistical program SPSS 19.0 software was used for data analysis by one-way ANOVA followed by Duncan’s post hoc test to evaluate differences between mean values of activities (SPSS Inc., Chicago, IL, USA).

Data set [1] in a line: Hydrogen peroxide scavenging activity (HPSA). As to conditions: antioxidant activity, H2O2 scavenging, 10 min at 37 °C, mean ± SD of triplicates. The class given is biochemical. On the procedure: The Manolov et al. method was used to assess the hydrogen peroxide scavenging capability. A 43 mM solution of H2O2 was prepared in potassium phosphate buffer solution (0.2 M, pH 7.4). The analysis of the samples was carried out as follows: in test tubes, 0.6 mL H2O2 (43 mM), 1 mL sample or reference compounds with different concentrations (20–1000 µg/mL), and 2.4 mL potassium phosphate buffer solution were mixed. The mixture was stirred and incubated in the dark for 10 min at 37 °C. Absorbance was measured at 230 nm with a spectrophotometer (Camspec M508, Leeds, UK) against a blank solution containing phosphate buffer and H2O2 without the sample. Ascorbic acid and quercetin were used as reference compounds. The percentage HPSA of the samples was evaluated by comparing with a blank sample and calculated using the following formula: I,%(HPSA)=Ablank−(ATS−ACS)/Ablank×100 where Ablank is the absorbance of the blank sample, ACS is the absorbance of the control sample, and ATS is the absorbance of the test sample.
as §1

Data set [2] in a line: Experimental determination of lipophilicity (RM), reversed-phase thin-layer chromatography. The format is physicochemical. As to conditions: dimensionless, from thin-layer chromatography Rf. An excerpt:
Lipophilicity can be assessed through either calculation or experimental methods. In our study, we determined the lipophilicity of the resulting flurbiprofen derivatives using a practical approach, employing reversed-phase thin-layer chromatography, a technique previously reported by Hadjipavlou-Litina.
The method employed for assessing the lipophilicity of flurbiprofen derivatives followed the procedure outlined by Hadjipavlou-Litina.

For the next data set, the target named is T1, bovine trypsin (Bos taurus, UniProt P00760).
T1 sequence (P00760 24-246): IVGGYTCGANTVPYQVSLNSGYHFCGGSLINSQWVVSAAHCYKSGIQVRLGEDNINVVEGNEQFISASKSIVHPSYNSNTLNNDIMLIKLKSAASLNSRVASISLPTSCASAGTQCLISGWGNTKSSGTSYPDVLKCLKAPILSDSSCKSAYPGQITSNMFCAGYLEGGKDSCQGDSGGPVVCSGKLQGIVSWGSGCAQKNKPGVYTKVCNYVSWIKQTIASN
In words: Antitryptic activity (ATA). As to conditions: human albumin as substrate, mean ± SD of triplicates. The class given is biochemical. On the procedure: This method is known also as an in vitro anti-arthritic activity. The analysis was performed according to the method of Oyedapo and Femurewa with minor modification as described by Manolov et al.. The reaction mixture was containing 2 mL 0.06 mg/mL bovine trypsin, 1 mL Tris-HCl buffer (20 mM, pH 7.4) and 1 mL test sample or reference (in methanol) of different concentrations (20-1000 μg/mL). The mixture was incubated at 37 °C for 5 min. Then 1 mL of human albumin (4% v/v) was added. The mixture was incubated for an additional 20 min. To the mixture 2 mL of 70% perchloric acid was added for termination of the reaction. The cloudy suspension was cooled and centrifuged at 5000 rpm for 20 min. The absorbance of the supernatant was measured at 280 nm with a spectrophotometer ([…], UK) against control solution. The control solution was sample or reference in methanol with different concentrations. Ibuprofen and flurbiprofen were used as reference compounds. The analysis was performed three times. The percentage of antitryptic activity (ATA) of the samples was evaluated by comparing with a blank sample. The blank sample is prepared as the test sample but with a small exception-perchloric acid is added before albumin. %ATA=Ablank-ATS-ACS/Ablank×100 where Ablank is the absorbance of the blank sample, ACS is the absorbance of the control solution (test sample in different concentrations) and ATS is the absorbance of the test samples. All of the analyses were made in triplicates. Data were expressed as mean ± SD. The level of significance was set at p < 0.05. The mean IC50 value was estimated based on three replicates by interpolating the graphical dependence of activity on concentration. Statistical program SPSS 19.0 software was used for data analysis by one-way ANOVA followed by Duncan's post hoc test to evaluate differences between mean values of activities (SPSS Inc., Chicago, IL, USA).

The subject of the next data set is rats. In words: Prediction of acute rat toxicity by GUSAR software. As to conditions: from predicted rat LD50, IV.

Sequence of human albumin (P02768 25-609): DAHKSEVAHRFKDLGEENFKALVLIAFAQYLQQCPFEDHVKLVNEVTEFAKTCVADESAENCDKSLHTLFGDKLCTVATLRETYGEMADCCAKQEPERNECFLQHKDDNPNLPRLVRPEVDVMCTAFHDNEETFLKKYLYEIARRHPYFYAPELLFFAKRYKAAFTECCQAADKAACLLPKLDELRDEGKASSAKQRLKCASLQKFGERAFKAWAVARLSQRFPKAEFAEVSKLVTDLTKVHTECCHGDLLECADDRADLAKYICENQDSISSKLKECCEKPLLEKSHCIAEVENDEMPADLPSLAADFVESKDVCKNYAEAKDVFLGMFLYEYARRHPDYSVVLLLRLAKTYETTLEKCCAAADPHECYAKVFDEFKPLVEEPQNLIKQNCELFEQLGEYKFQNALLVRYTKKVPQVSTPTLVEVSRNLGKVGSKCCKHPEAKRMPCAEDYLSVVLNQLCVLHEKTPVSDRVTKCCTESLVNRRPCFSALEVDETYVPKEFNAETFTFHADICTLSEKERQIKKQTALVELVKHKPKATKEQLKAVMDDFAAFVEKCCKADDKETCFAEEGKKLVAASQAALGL

For `COc1cccc(CCNC(=O)C(C)c2ccc(-c3ccccc3)c(F)c2)c1` (centres unmarked) [Compound 4b, 2-(2-fluoro-[1,1′-biphenyl]-4-yl)-N-(3-methoxyphenethyl)propanamide], the IC50 was 188 ± 3 µM on human albumin (read-out: IAD IC50 ± SD), 201 ± 3.3 µM in data set [1] and 208 ± 15 µM against bovine trypsin. In data set [2], the “RM ± SD” value is 1.13 ± 0.02.

Take `CC(C(=O)NCCc1ccccc1)c1ccc(-c2ccccc2)c(F)c1` (centres unmarked) [Compound 4a, 2-(2-fluoro-[1,1′-biphenyl]-4-yl)-N-phenethylpropanamide]: the IC50 came to 198 ± 2.3 µM at human albumin (read-out: IAD IC50 ± SD), 223 ± 6 µM in data set [1] and 2260 ± 73 µM against bovine trypsin. The “RM ± SD” value in data set [2] is on record as 1.24 ± 0.02.

`COc1ccc(CCNC(=O)C(C)c2ccc(-c3ccccc3)c(F)c2)cc1OC` (centres unmarked) [Compound 4d, N-(3,4-dimethoxyphenethyl)-2-(2-fluoro-[1,1′-biphenyl]-4-yl)propanamide]: the IC50 on human albumin (read-out: IAD IC50 ± SD) worked out at 173.74 ± 0.13 µM; in data set [1], 199.5 ± 1.3 µM; against bovine trypsin it was 215 ± 5 µM. Besides, in data set [2], the “RM ± SD” value is on record as 1.33 ± 0.02.

Consider `CC(C(=O)NCCc1cccc(Cl)c1)c1ccc(-c2ccccc2)c(F)c1` (centres unmarked) [Compound 4e, N-(3-chlorophenethyl)-2-(2-fluoro-[1,1′-biphenyl]-4-yl)propanamide], for which the half-inhibitory concentration (IC50) on human albumin (read-out: IAD IC50 ± SD) is 193 ± 2.2 µM; in data set [1], 199 ± 9 µM; against bovine trypsin, 198 ± 14 µM. The “toxicity relative to flurbiprofen, intravenous” value in the data set on rats is recorded as “four times greater toxicity than flurbiprofen”. Further, the “RM ± SD” value in data set [2] came to 1.41 ± 0.03.

For `CC(C)Cc1ccc(C(C)C(=O)O)cc1` (centres unmarked) [Ibu, ibuprofen, reference compound], the IC50 in data set [1] turned out to be 618 ± 25 µM; at bovine trypsin, 1260 ± 44 µM. In addition, in data set [2], the “RM ± SD” value came to 1.11 ± 0.01.

Regarding `O=c1c(O)c(-c2ccc(O)c(O)c2)oc2cc(O)cc(O)c12` [Qrc, quercetin], the IC50 in data set [1] was 229 ± 6 µM; in data set [1] (listed as quercetin), 229 µM.

Regarding `CC(C(=O)O)c1ccc(-c2ccccc2)c(F)c1` (centres unmarked) [Flu, flurbiprofen], the IC50 against human albumin (IAD IC50 ± SD) was 339 µM; in data set [1], 1160 ± 64 µM; against bovine trypsin, 441 ± 36 µM. Besides, the “RM ± SD” value in data set [2] is listed as 1.37 ± 0.02.

Regarding `COc1ccc(CCNC(=O)C(C)c2ccc(-c3ccccc3)c(F)c2)cc1` (centres unmarked) [Compound 4c, 2-(2-fluoro-[1,1′-biphenyl]-4-yl)-N-(4-methoxyphenethyl)propanamide], the half-inhibitory concentration (IC50) stood at 196.9 ± 0.5 µM at human albumin (read-out: IAD IC50 ± SD), 144 ± 10 µM in data set [1] and 203 ± 14 µM on bovine trypsin. In addition, the “RM ± SD” value in data set [2] stood at 1.21 ± 0.02.

For the molecule `O=C1O[C@H]([C@@H](O)CO)C(O)=C1O` [AA, ascorbic acid], the results for the IC50 in data set [1] and in data set [1] (listed as ascorbic acid) were 141 ± 2 µM and 141 µM, respectively.

The term IC50 denotes the concentration at which inhibition is half-maximal.
